Reference: the Biogen ADME set (Fang et al. 2023)
Values after ≈ are worked out from the molar mass of the structure shown.

Settings: for aqueous solubility: pH 6.8

intrinsic clearance, human liver microsomes [mL/min/kg]	intrinsic clearance, rat liver microsomes [mL/min/kg]	aqueous solubility [µg/mL]	MDR1-MDCK efflux ratio	Structure (SMILES)
109	144	5.43 (≈ 15.6 µM)	–	CC(=O)n1c(/C=C2/N=C(c3ccc(F)cc3)OC2=O)cc2ccccc21
327	1380	–	–	Cc1cc(SCc2ccc(Cl)nc2)nc2ccccc12
43.6	412	44.7 (≈ 137 µM)	0.525	CCn1ncc(-c2cc(C(F)F)nc(NCCCOC)n2)c1C
–	–	2.1 (≈ 6.58 µM)	0.817	N#Cc1c(O)nc(SCc2cccc(F)c2F)nc1C1CC1
83.2	178	28.3 (≈ 141 µM)	0.809	c1ccc(-c2noc(NC3CC3)n2)cc1
10.4	94.5	46 (≈ 182 µM)	0.695	CN(C)c1cc(CNc2ccc(C#N)cn2)ccn1
–	–	23.1 (≈ 113 µM)	–	N#CCCn1nc(C(F)(F)F)cc1O
–	–	27.6 (≈ 65 µM)	–	COc1ccc(-c2ccccc2)c(NS(=O)(=O)c2cc(O)c(Cl)cc2Cl)c1
85.8	701	20.3 (≈ 68.4 µM)	10.4	CN(CC(=O)NC1(C#N)CCCCC1)c1cccc(C#N)c1
≤ 4.74	≤ 10.7	–	2.43	CC(C)CCN1CCC(CNS(C)(=O)=O)CC1
12	260	45.7 (≈ 127 µM)	2.47	CCn1ccc2cc(C(=O)N3CCN(c4ccc(C)cc4)C(=O)C3)ccc21
≤ 4.74	≤ 10.7	54.6 (≈ 161 µM)	12.8	O=C(Cn1c(-c2ccc(F)cc2)nc2ccccc21)N1CCOCC1
9.69	155	–	11.2	Cc1cccc(C)c1OCC(=O)N(C)[C@@H]1CCC[C@@H](O)[C@@H]1O
≤ 4.74	60.6	67.8 (≈ 252 µM)	0.65	Cc1cncc(C2CCN(Cc3cnccn3)CC2)n1
6.67	397	–	–	CN(C)Cc1ccnc(NC(=O)c2ccsc2)c1
≤ 4.74	27.4	–	0.396	Cc1ccc(CN)c(-n2cc(Cl)cn2)n1
255	1760	–	–	O=C(CCc1ccc(-c2ccccc2)o1)N1CCC(n2c(=O)[nH]c3ccccc32)CC1
≤ 4.74	30.7	–	8.46	Cc1cc(C)c2c(C(=O)N3CC4(CNC(=O)N4)C3)cc(C)nc2c1
≤ 4.74	14.2	–	0.858	Cc1nn(C)c2ncc(CNc3ccon3)cc12
93.9	628	25.1 (≈ 90.8 µM)	0.54	c1ccc2c(c1)CN(c1cnc3ccccc3n1)CCN2
177	1770	–	–	Cc1c(C(=O)NCC2CCSCC2)nnn1-c1cccc2cnccc12
74.6	747	63.3 (≈ 206 µM)	1.6	O=C(CSC1CCCC1)N1CCC(Cn2cccn2)CC1

intrinsic clearance, human liver microsomes [mL/min/kg]	intrinsic clearance, rat liver microsomes [mL/min/kg]	aqueous solubility [µg/mL]	MDR1-MDCK efflux ratio	Structure (SMILES)
≤ 4.74	≤ 10.7	30.4 (≈ 112 µM)	7.94	Cc1ccc(C(=O)NC[C@H]2Cn3ccnc3CO2)cc1
25.8	70.7	54.1 (≈ 168 µM)	3.78	CCNC(=O)c1cc(C2CC2)nc2c1c(C)nn2-c1ccccn1
12.5	52.9	–	0.589	c1cnc(NCc2cnc3ccsc3c2)nc1
6.21	89.6	14.9 (≈ 47.9 µM)	18	CCOC(=O)Cc1c(C)[nH]c2c(-c3ccccc3)cnn2c1=O
≤ 4.74	≤ 10.7	18 (≈ 84.3 µM)	–	N#Cc1ccc(C(=O)Nn2cnnc2)cc1
–	–	0.14 (≈ 0.417 µM)	0.486	COc1cccc(-c2nnn(Cc3cc(F)cc4cccnc34)n2)c1
–	4750	–	0.712	O=C(C1CCC1)N1CCC[C@H]1Cn1nnc(-c2cccs2)n1
8.7	90.9	–	–	COc1cc2nc(-c3ccc(N4CCN(C)CC4)cc3)nc(NCCN3CCOCC3)c2cc1OC
19.3	54.3	–	0.634	Cc1nc(-c2ccccc2)nc(O)c1C
107	1190	–	2.1	CCCNC(=O)CSc1nc2cc(C)ccc2[nH]1
34.4	217	8.88 (≈ 26.6 µM)	0.521	CNC(=O)c1cnc(/C=C/c2csc(-c3cccs3)n2)s1
≤ 4.74	581	54.1 (≈ 148 µM)	20.9	Cc1ccc(S(=O)(=O)N2CCC[C@H](C(=O)NC3CCOCC3)C2)cc1
28.6	1740	–	0.435	CN(C)CCSc1nnnn1-c1ccc(Br)cc1
–	–	0.29 (≈ 0.717 µM)	3.05	COc1cc2c(cc1OC)-c1[nH]nc(NCc3c(Cl)cccc3Cl)c1C2=O
45.2	361	115 (≈ 354 µM)	37.3	CCN(Cc1ccncc1)[C@@H]1CN(C(=O)c2ccccc2)C[C@H]1O
≤ 4.74	77.5	44.7 (≈ 162 µM)	0.672	CN(c1ncnc2c1cnn2CCO)C1CCCCC1
≤ 4.74	≤ 10.7	–	1.05	O=C(O)c1cnn(-c2nc3cc(Cl)c(OC(F)(F)F)cc3[nH]2)c1
≤ 4.74	189	28.4 (≈ 98.9 µM)	3.18	Cc1ccc(-n2cc(C(=O)NCCN(C)C)nn2)cc1C
218	2960	69.7 (≈ 164 µM)	9.52	COc1ccccc1CNC(=O)c1cnc(C2CCN(C(=O)C(C)(C)C)CC2)nc1C
49.6	3760	19 (≈ 67.1 µM)	0.46	CCc1nc2cc(-c3c(OC)cccc3OC)ccc2o1
–	–	0.38 (≈ 1.06 µM)	1.52	Cc1ccc(CC(=O)NCc2cccc(C(=O)Nc3ccccc3)c2)cc1
227	327	–	–	CC(=O)N1CCCN(Cc2ccc(C(=O)N3CCCC3)cc2)c2ccccc21
